# According to ChEMBL document CHEMBL1201862, “PubChem BioAssay data set” (2004):
# Active and inactive are the calls of the source.
# Experiments:
# [1] = target: T1, Apoptotic protease-activating factor 1 (Homo sapiens, UniProt O14727); format: functional
# T1 sequence (O14727 whole entry): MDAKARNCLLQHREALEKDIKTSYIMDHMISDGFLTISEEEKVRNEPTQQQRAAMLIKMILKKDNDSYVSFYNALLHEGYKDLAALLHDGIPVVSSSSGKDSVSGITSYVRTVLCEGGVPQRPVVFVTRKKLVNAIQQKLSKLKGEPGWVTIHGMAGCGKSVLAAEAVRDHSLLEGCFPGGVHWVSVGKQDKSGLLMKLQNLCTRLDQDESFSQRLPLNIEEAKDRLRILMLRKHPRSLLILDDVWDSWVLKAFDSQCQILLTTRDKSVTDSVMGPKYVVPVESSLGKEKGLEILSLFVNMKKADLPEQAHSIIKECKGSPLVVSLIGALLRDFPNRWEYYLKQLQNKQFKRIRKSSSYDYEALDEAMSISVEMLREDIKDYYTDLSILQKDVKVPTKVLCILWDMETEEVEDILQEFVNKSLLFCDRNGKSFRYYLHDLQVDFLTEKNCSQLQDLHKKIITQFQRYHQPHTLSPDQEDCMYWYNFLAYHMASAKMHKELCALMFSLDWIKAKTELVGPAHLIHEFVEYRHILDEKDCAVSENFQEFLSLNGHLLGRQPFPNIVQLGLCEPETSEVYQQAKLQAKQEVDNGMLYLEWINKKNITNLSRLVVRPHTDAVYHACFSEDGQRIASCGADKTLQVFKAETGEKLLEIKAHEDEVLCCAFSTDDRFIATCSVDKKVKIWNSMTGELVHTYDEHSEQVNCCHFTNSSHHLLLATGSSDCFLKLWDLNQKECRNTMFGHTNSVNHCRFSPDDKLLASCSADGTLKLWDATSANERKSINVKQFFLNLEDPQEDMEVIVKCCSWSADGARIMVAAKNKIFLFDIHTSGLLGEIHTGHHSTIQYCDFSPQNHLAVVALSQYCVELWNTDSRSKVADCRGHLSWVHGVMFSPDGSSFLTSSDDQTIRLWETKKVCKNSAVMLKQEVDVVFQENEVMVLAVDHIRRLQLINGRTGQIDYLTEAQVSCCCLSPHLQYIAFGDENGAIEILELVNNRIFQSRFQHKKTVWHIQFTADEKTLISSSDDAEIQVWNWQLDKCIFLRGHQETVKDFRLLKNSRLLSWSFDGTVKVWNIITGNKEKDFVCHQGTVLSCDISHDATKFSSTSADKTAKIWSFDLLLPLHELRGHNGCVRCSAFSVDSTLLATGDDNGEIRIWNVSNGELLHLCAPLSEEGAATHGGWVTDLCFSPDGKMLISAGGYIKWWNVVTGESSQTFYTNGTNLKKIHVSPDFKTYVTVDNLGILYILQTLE
# [2] = target: T2, Runt-related transcription factor 1/Core-binding factor subunit beta (Homo sapiens, UniProt Q01196+Q13951); test: disruptors of Runt domain/CBFb-SMMHC interaction – biochemical, FRET, Cerulean-Runt, Venus-CBFb-SMMHC, uHTS, […] (AID 1434); format: protein assay
# T2 sequence (Q01196 whole entry, the tested form may be a part): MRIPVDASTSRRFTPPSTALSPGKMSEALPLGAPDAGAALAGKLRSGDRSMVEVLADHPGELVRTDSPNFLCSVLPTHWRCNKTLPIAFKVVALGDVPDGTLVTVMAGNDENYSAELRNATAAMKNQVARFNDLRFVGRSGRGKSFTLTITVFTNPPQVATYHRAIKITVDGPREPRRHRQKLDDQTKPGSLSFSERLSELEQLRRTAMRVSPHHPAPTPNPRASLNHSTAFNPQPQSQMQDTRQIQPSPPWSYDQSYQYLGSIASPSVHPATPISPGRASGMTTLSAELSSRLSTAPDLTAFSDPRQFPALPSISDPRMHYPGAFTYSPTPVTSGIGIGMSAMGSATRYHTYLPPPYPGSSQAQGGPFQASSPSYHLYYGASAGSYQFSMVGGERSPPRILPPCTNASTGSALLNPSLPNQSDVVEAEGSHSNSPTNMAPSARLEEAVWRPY
# T2 sequence (Q13951 whole entry, the tested form may be a part): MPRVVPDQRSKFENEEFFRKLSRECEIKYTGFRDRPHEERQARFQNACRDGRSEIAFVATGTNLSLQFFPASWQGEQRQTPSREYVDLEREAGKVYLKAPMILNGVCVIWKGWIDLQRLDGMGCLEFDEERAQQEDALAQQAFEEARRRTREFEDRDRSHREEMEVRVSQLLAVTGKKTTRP
# [3] = target: T2, Runt-related transcription factor 1/Core-binding factor subunit beta; test: Runt domain/CBFb-SMMHC interaction disruptors – biochemical, TR-FRET (AID 1438); format: protein assay
# [4] = test system: INS1; test: INS-1E survival protection against cytokine death – cell-based, luminescence, retest, dose response (AID 449756); format: functional; details: Rattus norvegicus;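 further: cell death triggered by IL-1 beta plus TNF-alpha plus IFN-gamma mixture; protective hits raise ATP signal compared with cytokine alone wells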
# [5] = target: T3, Hexokinase HKDC1 (Homo sapiens, UniProt Q2TB90); test: activation of HKDC1 glucose phosphorylation – biochemical, W721R variant, dose response (AID 504730); format: functional
# T3 sequence (Q2TB90 whole entry): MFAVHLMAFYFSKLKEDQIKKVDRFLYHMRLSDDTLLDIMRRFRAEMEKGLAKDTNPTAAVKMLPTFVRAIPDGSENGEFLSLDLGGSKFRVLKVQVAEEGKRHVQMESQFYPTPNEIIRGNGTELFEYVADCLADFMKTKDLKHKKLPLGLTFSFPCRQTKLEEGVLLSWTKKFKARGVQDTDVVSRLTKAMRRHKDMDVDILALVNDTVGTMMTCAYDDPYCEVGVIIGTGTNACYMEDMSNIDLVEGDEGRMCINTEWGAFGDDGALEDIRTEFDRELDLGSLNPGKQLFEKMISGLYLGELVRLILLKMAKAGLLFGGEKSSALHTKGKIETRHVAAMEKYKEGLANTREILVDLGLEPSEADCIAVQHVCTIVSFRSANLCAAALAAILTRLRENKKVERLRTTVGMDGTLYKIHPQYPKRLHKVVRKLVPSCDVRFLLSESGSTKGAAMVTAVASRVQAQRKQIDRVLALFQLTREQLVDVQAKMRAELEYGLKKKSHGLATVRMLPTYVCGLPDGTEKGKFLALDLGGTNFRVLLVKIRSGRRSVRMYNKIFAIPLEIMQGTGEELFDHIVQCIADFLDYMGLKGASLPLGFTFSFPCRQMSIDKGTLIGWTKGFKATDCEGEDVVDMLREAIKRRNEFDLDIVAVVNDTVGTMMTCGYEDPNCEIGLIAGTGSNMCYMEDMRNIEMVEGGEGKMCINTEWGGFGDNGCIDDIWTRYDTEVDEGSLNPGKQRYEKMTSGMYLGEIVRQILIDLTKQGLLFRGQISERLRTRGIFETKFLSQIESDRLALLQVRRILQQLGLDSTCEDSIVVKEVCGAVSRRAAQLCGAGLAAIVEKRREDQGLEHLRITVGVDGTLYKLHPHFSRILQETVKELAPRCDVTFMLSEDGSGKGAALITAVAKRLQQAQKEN
# [6] = reduction of Shn3 3'UTR-driven luciferase in osteoblasts – cell-based, Clone20 osteoblasts, firefly luciferase, cherry-picked, dose response (AID 624132); format: functional;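 further: firefly luciferase luminescence from reporter carrying the Shn3 3'UTR in osteoblasts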
# [7] = target: T4, Hexokinase-1 (Homo sapiens, UniProt P19367); test: HK1 enzyme activation by HKDC1 hits – biochemical, selectivity assay for HKDC1 activator project, dose response (AID 504762); format: functional
# T4 sequence (P19367 whole entry): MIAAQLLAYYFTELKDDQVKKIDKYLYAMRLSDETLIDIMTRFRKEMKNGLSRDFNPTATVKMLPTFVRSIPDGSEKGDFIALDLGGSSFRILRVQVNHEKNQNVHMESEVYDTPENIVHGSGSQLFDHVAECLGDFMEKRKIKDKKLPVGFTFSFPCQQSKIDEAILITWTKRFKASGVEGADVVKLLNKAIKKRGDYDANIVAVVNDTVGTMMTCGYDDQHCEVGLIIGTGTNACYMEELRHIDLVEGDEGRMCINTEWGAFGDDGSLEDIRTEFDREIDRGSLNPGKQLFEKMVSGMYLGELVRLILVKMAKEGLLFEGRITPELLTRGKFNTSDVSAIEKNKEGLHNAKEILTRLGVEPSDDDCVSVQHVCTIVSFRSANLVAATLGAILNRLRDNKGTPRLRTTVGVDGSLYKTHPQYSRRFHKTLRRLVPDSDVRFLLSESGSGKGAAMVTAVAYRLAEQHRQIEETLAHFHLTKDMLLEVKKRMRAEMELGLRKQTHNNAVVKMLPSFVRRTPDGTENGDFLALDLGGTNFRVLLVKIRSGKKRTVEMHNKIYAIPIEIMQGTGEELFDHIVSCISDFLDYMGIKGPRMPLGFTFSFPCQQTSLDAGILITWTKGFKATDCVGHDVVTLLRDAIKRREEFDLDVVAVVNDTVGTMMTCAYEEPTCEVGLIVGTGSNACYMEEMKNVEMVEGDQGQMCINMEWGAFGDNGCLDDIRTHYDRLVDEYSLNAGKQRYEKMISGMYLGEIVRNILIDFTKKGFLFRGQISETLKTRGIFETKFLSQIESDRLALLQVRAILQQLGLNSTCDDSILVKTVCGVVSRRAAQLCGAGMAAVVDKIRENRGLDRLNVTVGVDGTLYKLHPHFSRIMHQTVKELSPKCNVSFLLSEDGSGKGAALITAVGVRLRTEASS
# [8] = loss of viability in HepG2 cells – cell-based, CellTiter-Glo, cherry-picked, cytotoxicity control for Shn3 inhibitor project, dose response (AID 624134); format: functional
# [9] = non-specific 3'UTR reporter inhibition in Clone20-Shn3RL – cell-based, Renilla luciferase, cherry-picked, counter-screen for Shn3 inhibitor project, dose response (AID 624133); format: functional
# [10] = target: T5, Short transient receptor potential channel 4 (Mus musculus, UniProt Q9QUQ5); test: block of DAMGO-driven TRPC4 calcium entry – cell-based, HEK293 TRPC4/mu-opioid, Fluo-4 calcium, dose response (AID 434942); format: functional;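 further: potency of inhibitors blocking the TRPC4 calcium response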
# T5 sequence (Q9QUQ5 whole entry): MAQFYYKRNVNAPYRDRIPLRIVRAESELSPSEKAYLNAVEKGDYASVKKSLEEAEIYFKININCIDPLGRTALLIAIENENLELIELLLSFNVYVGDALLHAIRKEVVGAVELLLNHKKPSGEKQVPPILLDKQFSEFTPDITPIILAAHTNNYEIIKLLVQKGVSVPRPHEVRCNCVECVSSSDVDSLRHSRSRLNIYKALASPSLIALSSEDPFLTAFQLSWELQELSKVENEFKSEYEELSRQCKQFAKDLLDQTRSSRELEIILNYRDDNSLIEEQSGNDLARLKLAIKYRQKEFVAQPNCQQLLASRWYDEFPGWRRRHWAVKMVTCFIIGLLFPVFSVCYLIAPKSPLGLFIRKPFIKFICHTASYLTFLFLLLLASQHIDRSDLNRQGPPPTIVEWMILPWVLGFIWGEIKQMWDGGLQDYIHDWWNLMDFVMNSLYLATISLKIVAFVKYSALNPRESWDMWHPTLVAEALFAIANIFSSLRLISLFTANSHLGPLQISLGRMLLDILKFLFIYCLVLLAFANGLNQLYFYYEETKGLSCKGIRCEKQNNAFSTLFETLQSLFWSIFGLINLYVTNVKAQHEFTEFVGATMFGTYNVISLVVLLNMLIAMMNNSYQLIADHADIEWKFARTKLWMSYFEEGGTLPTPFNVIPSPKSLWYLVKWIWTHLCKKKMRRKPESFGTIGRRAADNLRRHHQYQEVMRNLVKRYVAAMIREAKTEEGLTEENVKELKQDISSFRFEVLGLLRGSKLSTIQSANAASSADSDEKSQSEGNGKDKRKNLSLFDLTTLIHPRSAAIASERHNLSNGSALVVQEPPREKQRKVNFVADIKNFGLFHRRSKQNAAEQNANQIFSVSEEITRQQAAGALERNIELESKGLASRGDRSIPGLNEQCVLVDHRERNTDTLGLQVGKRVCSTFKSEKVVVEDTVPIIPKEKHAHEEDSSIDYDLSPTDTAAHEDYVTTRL
# [11] = target: T5, Short transient receptor potential channel 4; test: calcium entry via TRPC4 opening agents – cell-based, HEK293 TRPC4/mu-opioid, Fluo-4 calcium, dose response (AID 434937); format: functional
# [12] = viability of HCT116 lacking mutant beta-catenin – cell-based, human colon tumor, dose response (AID 1045); format: functional;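 further: HCT116 colon tumor cells with beta catenin knocked out; cells exposed to compound for 60 hours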
# [13] = target: Voltage-dependent T-type calcium channel subunit alpha-1H (Homo sapiens, UniProt O95180); format: functional;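 further: channel activity triggered by adding a high calcium stimulation buffer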
# Chain of Voltage-dependent T-type calcium channel subunit alpha-1H (O95180 whole entry): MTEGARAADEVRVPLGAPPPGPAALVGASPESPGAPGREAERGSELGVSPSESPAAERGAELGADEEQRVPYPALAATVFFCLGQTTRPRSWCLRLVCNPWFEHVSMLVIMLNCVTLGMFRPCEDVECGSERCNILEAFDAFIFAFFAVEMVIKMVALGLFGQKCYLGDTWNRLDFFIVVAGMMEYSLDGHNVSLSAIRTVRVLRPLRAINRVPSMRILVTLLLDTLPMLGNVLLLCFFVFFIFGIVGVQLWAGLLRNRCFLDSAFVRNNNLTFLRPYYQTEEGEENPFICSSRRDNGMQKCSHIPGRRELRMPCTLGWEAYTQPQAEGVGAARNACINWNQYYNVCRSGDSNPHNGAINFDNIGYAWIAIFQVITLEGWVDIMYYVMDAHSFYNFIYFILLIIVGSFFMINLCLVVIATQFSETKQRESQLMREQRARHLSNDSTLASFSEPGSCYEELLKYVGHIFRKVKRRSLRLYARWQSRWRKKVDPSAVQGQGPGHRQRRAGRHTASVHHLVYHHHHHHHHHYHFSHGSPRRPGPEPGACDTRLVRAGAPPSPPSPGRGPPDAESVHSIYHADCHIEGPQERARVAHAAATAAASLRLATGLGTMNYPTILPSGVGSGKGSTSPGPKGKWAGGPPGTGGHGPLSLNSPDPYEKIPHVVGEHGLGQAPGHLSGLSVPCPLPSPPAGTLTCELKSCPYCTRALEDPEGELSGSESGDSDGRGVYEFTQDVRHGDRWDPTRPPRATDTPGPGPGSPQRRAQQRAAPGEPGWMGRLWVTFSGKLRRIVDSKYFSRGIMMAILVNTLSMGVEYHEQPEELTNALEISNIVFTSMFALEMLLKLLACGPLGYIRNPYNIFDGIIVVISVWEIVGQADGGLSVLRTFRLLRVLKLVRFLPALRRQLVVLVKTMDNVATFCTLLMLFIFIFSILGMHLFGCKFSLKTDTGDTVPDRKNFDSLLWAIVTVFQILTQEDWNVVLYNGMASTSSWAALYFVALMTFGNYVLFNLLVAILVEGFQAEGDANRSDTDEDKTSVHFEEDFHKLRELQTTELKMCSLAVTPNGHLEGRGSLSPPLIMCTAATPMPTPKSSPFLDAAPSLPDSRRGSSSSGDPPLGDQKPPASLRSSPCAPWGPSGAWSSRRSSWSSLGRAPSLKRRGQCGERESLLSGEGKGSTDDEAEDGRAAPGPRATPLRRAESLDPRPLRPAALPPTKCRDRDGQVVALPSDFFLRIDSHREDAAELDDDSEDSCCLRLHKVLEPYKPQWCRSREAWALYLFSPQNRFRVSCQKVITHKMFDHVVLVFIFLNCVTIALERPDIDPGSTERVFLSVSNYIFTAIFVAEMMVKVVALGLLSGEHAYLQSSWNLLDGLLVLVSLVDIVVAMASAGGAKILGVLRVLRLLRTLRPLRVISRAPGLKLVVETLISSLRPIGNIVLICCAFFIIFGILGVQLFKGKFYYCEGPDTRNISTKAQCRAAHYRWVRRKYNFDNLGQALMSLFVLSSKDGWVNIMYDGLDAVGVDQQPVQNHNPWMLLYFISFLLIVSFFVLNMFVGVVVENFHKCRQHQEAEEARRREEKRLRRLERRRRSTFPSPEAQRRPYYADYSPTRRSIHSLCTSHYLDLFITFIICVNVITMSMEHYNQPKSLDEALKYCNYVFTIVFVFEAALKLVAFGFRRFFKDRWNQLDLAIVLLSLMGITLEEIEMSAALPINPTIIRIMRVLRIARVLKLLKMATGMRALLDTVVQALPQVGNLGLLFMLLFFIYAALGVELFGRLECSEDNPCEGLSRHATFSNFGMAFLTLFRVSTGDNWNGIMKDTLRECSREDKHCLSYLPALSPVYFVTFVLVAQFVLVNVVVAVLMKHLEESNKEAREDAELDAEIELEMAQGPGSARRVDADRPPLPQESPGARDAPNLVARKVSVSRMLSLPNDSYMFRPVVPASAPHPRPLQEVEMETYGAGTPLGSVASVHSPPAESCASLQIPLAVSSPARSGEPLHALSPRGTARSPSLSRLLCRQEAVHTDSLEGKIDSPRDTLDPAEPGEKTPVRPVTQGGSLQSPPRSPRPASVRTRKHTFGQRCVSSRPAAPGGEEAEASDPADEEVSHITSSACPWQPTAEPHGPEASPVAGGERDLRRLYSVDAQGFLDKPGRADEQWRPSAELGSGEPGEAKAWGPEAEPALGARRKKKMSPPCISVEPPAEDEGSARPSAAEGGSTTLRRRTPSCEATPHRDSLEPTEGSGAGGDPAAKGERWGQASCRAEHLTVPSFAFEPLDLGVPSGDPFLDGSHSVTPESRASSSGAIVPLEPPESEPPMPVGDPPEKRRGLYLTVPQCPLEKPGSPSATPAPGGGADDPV
# [14] = viability of PTEN-deleted HCT116 cells – cell-based, HCT116 PTEN knockout, dose response (AID 1047); format: functional;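 further: HCT116 colon tumor cells with PTEN knocked out; cells exposed to compound for 60 hours before readout; potency for loss of cell viability measured by luminescence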
# [15] = target: T6, Lysine-specific demethylase 4C (Homo sapiens, UniProt Q9H3R0); test: inhibition of JMJD2C H3K9me3 demethylation – biochemical, DELFIA europium, cherry-picked samples, dose response (AID 488835); format: functional
# T6 sequence (Q9H3R0 whole entry): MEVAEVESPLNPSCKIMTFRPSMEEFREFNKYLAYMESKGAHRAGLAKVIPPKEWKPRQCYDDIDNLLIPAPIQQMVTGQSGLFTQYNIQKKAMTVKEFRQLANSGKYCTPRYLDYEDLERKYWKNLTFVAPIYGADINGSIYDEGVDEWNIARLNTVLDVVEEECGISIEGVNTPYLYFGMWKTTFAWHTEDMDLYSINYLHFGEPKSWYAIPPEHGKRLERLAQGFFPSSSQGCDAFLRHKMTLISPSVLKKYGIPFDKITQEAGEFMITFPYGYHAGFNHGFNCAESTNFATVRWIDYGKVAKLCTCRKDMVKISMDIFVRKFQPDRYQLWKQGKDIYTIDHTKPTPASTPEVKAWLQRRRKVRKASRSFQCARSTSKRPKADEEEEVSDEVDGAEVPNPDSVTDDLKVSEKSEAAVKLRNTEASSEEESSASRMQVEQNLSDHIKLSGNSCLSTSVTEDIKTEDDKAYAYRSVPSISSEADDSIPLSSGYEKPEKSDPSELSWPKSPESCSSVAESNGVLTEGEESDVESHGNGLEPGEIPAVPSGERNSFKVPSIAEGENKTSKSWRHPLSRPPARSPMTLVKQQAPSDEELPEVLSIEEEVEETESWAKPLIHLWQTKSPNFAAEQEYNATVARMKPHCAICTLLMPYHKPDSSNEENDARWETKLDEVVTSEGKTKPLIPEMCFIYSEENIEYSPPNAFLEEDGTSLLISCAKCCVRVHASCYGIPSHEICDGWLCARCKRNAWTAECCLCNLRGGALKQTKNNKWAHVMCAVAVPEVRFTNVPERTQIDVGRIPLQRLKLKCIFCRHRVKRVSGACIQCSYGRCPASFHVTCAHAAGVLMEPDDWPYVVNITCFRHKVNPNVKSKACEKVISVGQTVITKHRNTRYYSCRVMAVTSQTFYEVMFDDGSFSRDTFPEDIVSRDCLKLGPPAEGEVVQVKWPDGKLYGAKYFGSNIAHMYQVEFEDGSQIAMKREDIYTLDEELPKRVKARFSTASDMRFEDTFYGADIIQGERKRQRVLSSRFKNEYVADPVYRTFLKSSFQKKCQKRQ
compound,measurement,setting,value
COCCCNC(=O)c1c(NC(=O)c2ccco2)n(Cc2ccccc2)c2nc3ccccc3nc12,IC50,[1],> 100 µM (inactive)
same,IC50,[2],0.34 µM (active)
same,IC50,[3],16 µM (active)
C=CCn1nc([N+](=O)[O-])nc1Sc1cccc2cccnc12,AC50,[4],1.24 µM (active)
same,EC50,[5],> 80 µM (inactive)
same,AC50,[6],10.7 µM (active)
same,EC50,[7],> 80 µM (inactive)
same,AC50,[8],30.3 µM (active)
same,AC50,[9],7.05 µM (active)
Clc1ccc(COn2c(-c3ccc(Cl)cc3Cl)nc3ncccc32)cc1,EC50,[10],1.33 µM (active)
same,EC50,[11],4.22 µM (active)
O=C(CN1CCN(c2ncc(C(F)(F)F)cc2Cl)CC1)N1CCN(c2ncc(C(F)(F)F)cc2Cl)CC1,EC50,[12],49.1 µM (active)
same,EC50,[11],3.35 µM (active)
same,EC50,[13],8.68 µM (active)
same,EC50,[14],48.4 µM (active)
CC(C)(C)c1ccc(-c2csc(NNC3=NCCCCC3)n2)cc1,AC50,[15],22.3 µM (active)
same,EC50,[5],38.1 µM (inactive)
same,EC50,[7],47.4 µM (inactive)
